Data as given in patent US20180079752A1, “BTK INHIBITORS” (MERCK SHARP & DOHME CORP., priority 2015, published 2018).

The compounds below were run against T1, BTK enzyme (recombinant full-length BTK, hBTK) (Homo sapiens, UniProt Q06187) (assay: Btk enzyme activity assay (LANCE TR-FRET)). Conditions: 60 minute compound & enzyme incubation, 50 pM hBTK, 25 μM ATP, read-out: BTK binding IC50.
T1 construct: recombinant protein from baculovirus-transfected Sf9 cells: full-length BTK, 6HIS-tag cleaved; 6HIS (cleaved yes); made in house; host or cells: baculovirus-transfected Sf9 cells
Type: biochemical
Protocol: BTK enzymatic activity was determined with the LANCE (Lanthanide Chelate Excite) TR-FRET (Time-resolved fluorescence resonance energy transfer) assay. In this assay, the potency (IC50) of each compound was determined from an eleven point (1:3 serial dilution; final compound concentration range in assay from 1 μM to 0.017 nM) titration curve using the following outlined procedure. To each well of a black non-binding surface Corning 384-well microplate (Corning Catalog #3820), 5 nL of compound (2000 fold dilution in final assay volume of 10 μL) was dispensed, followed by the addition of 7.5 μL of 1× kinase buffer (50 mM Hepes 7.5, 10 mM MgCl2, 0.01% Brij-35, 1 mM EGTA, 0.05% BSA & 1 mM DTT) containing 5.09 pg/μL (66.67 pM) of BTK enzyme (recombinant protein from baculovirus-transfected Sf9 cells: full-length BTK, 6HIS-tag cleaved). Following a 60 minute compound & enzyme incubation, each reaction was initiated by the addition of 2.5 μL 1× kinase buffer containing 8 μM biotinylated “AS” peptide (Biotin-EQEDEPEGDYFEWLE-NH2), and 100 μM ATP. The final reaction in each well of 10 μL consists of 50 pM hBTK, 2 μM biotin-AS-peptide, and 25 μM ATP. Phosphorylation reactions were allowed to proceed for 120 minutes. Reactions were immediately quenched by the addition of 20 uL of 1× quench buffer (15 mM EDTA, 25 mM Hepes 7.3, and 0.1% Triton X-100) containing detection reagents (0.626 nM of LANCE-Eu-W1024-anti-phosphoTyrosine antibody, PerkinElmer and 86.8 nM of Streptavidin-conjugated Dylight 650, Dyomics/ThermoFisher Scientific). After 60 minutes incubation with detection reagents, reaction plates were read on a PerkinElmer EnVision plate reader using standard TR-FRET protocol. Briefly, excitation of donor molecules (Eu-chelate:anti-phospho-antibody) with a laser light source at 337 nm produces energy that can be transferred to Dylight-650 acceptor molecules if this donor:acceptor pair is within close proximity. Fluorescence intensity at both 665 nm (acceptor) and 615 nm (donor) are measured and a TR-FRET ratio calculated for each well (acceptor intensity/donor intensity). IC50 values were determined by 4 parameter robust fit of TR-FRET ratio values vs. (Log10) compound concentrations.

T1 sequence (Q06187 whole entry): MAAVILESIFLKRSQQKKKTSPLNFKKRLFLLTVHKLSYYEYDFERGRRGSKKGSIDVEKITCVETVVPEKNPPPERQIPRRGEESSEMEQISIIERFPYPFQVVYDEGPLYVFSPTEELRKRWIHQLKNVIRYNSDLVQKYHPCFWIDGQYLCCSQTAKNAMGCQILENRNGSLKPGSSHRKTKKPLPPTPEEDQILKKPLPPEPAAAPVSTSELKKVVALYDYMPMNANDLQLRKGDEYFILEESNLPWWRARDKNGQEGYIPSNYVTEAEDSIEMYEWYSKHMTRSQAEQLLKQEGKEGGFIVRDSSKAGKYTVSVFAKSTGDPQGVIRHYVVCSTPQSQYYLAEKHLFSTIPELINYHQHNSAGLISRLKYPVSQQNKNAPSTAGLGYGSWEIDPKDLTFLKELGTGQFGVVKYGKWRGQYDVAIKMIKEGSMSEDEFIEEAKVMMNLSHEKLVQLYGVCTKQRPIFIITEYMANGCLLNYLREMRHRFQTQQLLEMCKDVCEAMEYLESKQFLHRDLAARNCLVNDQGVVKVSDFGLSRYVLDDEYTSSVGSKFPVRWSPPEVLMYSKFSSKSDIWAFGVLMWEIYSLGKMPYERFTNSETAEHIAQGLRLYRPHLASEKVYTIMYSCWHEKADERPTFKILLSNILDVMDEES

Compound | IC50
N#CN1CCC[C@@H](c2nc(-c3ccc(C(=O)Nc4cc(C(F)(F)F)ccn4)cc3)c3c(N)nccn23)C1 [Example 1, 4-{8-amino-3-[(3R)-1-cyanopiperidin-3-yl]imidazo[1,5-a]pyrazin-1-yl}-N-[4-(trifluoromethyl)pyridin-2-yl]benzamide] | 3.6 nM
N#CN1CCC[C@@H](c2nc(-c3ccc(C(=O)Nc4ccccn4)cc3)c3c(N)nccn23)C1 [Example 2, 4-{8-amino-3-[(3R)-1-cyanopiperidin-3-yl]imidazo[1,5-a]pyrazin-1-yl}-N-pyridin-2-ylbenzamide] | 1.5 nM
N#CN1CCC[C@H]1c1nc(-c2ccc(C(=O)Nc3ccccn3)cc2)c2c(N)nccn12 [Example 3, 4-{8-amino-3-[(2S)-1-cyanopyrrolidin-2-yl]imidazo[1,5-a]pyrazin-1-yl}-N-pyridin-2-ylbenzamide] | 60.3 nM
N#CN1CCC[C@H]1c1nc(-c2ccc(C(=O)Nc3cc(F)ccn3)cc2)c2c(N)nccn12 [Example 4, 4-{8-amino-3-[(2S)-1-cyanopyrrolidin-2-yl]imidazo[1,5-a]pyrazin-1-yl}-N-(4-fluoropyridin-2-yl)benzamide] | 49 nM
Cc1nccn2c([C@@H]3CCCN3C#N)nc(-c3ccc(C(=O)Nc4ccccn4)cc3)c12 [Example 5, 4-{3-[(2S)-1-cyanopyrrolidin-2-yl]-8-methylimidazo[1,5-a]pyrazin-1-yl}-N-pyridin-2-ylbenzamide] | 371 nM
N#CN1CCOC(c2nc(-c3ccc(C(=O)Nc4cc(C(F)(F)F)ccn4)cc3)c3c(N)nccn23)C1 (centres unmarked) [Example 6, 4-[8-amino-3-(4-cyanomorpholin-2-yl)imidazo[1,5-a]pyrazin-1-yl]-N-[4-(trifluoromethyl)pyridin-2-yl]benzamide] | 3.9 nM
N#CN1CCC[C@@H](c2nc(-c3ccc(C(=O)Nc4cc(C5CC5)ccn4)cc3)c3c(N)nccn23)C1 [Example 7, 4-{8-amino-3-[(3R)-1-cyanopiperidin-3-yl]imidazo[1,5-a]pyrazin-1-yl}-N-(4-cyclopropylpyridin-2-yl)benzamide] | 1.8 nM
Cc1nccn2c([C@@H]3CCCN(C#N)C3)nc(-c3ccc(C(=O)Nc4cc(C5CC5)ccn4)cc3)c12 [Example 8, 4-{3-[(3R)-1-cyanopiperidin-3-yl]-8-methylimidazo[1,5-a]pyrazin-1-yl}-N-(4-cyclopropylpyridin-2-yl)benzamide] | 46.8 nM
N#CN1CCC[C@H]1c1nc(-c2ccc(C(=O)Nc3cc(C4CC4)ccn3)cc2)c2c(N)nccn12 [Example 9, 4-{8-amino-3-[(2S)-1-cyanopyrrolidin-2-yl]imidazo[1,5-a]pyrazin-1-yl}-N-(4-cyclopropylpyridin-2-yl)benzamide] | 67.6 nM
C[C@H]1CC[C@@H](c2nc(-c3ccc(C(=O)Nc4ccccn4)cc3)c3c(N)nccn23)CN1C#N [Example 10, 4-{8-amino-3-[(3R,6S)-1-cyano-6-methylpiperidin-3-yl]imidazo[1,5-a]pyrazin-1-yl}-N-pyridin-2-ylbenzamide] | 3.1 nM
N#CN1CCO[C@@H](c2nc(-c3ccc(C(=O)Nc4cc(C(F)(F)F)ccn4)cc3)c3c(N)nccn23)C1 [Example 11, 4-{8-amino-3-[(2R)-4-cyanomorpholin-2-yl]imidazo[1,5-a]pyrazin-1-yl}-N-[4-(trifluoromethyl)pyridin-2-yl]benzamide] | 0.78 nM
N#CN1CCO[C@@H](c2nc(-c3ccc(C(=O)Nc4cc(C5CC5)ccn4)cc3)c3c(N)nccn23)C1 [Example 12, 4-{8-amino-3-[(2R)-4-cyanomorpholin-2-yl]imidazo[1,5-a]pyrazin-1-yl}-N-(4-cyclopropylpyridin-2-yl)benzamide] | 1 nM
COCc1cnc(N)c2c(-c3ccc(C(=O)Nc4cc(C(F)(F)F)ccn4)cc3F)nc([C@@H]3CCCN(C#N)C3)n12 [Example 18, 4-{8-amino-3-[(3R)-1-cyanopiperidin-3-yl]-5-(methoxymethyl)imidazo[1,5-a]pyrazin-1-yl}-3-fluoro-N-[4-(trifluoromethyl)pyridin-2-yl]benzamide] | 0.92 nM
CCOc1cc(C(=O)Nc2cc(C(F)(F)F)ccn2)ccc1-c1nc([C@H]2CN(C#N)[C@@H](C)CO2)n2c(Cl)cnc(N)c12 [Example 21, 4-{8-amino-5-chloro-3-[(2R,5S)-4-cyano-5-methylmorpholin-2-yl]imidazo[1,5-a]pyrazin-1-yl}-3-ethoxy-N-[4-(trifluoromethyl)pyridin-2-yl]benzamide] | 1.5 nM
CCOc1cc(C(=O)Nc2cc(C(F)(F)F)ccn2)ccc1-c1nc([C@@H]2CC[C@H](C)N(C#N)C2)n2c(Cl)cnc(N)c12 [Example 23, 4-{8-amino-5-chloro-3-[(3R,6S)-1-cyano-6-methylpiperidin-3-yl]imidazo[1,5-a]pyrazin-1-yl}-3-ethoxy-N-[4-(trifluoromethyl)pyridin-2-yl]benzamide] | 2.2 nM

The next compounds have a lower IC50 than those just listed; values first:

IC50 | Compound
0.36 nM | N#CN1CCC[C@@H](c2nc(-c3ccc(C(=O)Nc4cc(C(F)(F)F)ccn4)cc3F)c3c(N)nccn23)C1 [Example 13, 4-{8-amino-3-[(3R)-1-cyanopiperidin-3-yl]imidazo[1,5-a]pyrazin-1-yl}-3-fluoro-N-[4-(trifluoromethyl)pyridin-2-yl]benzamide]
0.24 nM | Cc1ccnc(NC(=O)c2ccc(-c3nc([C@@H]4CCCN(C#N)C4)n4ccnc(N)c34)cc2)c1 [Example 14, 4-{8-amino-3-[(3R)-1-cyanopiperidin-3-yl]imidazo[1,5-a]pyrazin-1-yl}-N-(4-methylpyridin-2-yl)benzamide]
0.41 nM | COc1ccnc(NC(=O)c2ccc(-c3nc([C@@H]4CCCN(C#N)C4)n4ccnc(N)c34)cc2)c1 [Example 15, 4-{8-amino-3-[(3R)-1-cyanopiperidin-3-yl]imidazo[1,5-a]pyrazin-1-yl}-N-(4-methoxypyridin-2-yl)benzamide]
0.29 nM | N#CN1CCC[C@@H](c2nc(-c3ccc(C(=O)Nc4cc(C(F)F)ccn4)cc3)c3c(N)nccn23)C1 [Example 16, 4-{8-amino-3-[(3R)-1-cyanopiperidin-3-yl]imidazo[1,5-a]pyrazin-1-yl}-N-[4-(difluoromethyl)pyridin-2-yl]benzamide]
0.19 nM | N#CN1CCC[C@@H](c2nc(-c3ccc(C(=O)Nc4cc(C(F)(F)F)ccn4)cc3)c3c(N)ncc(Cl)n23)C1 [Example 17, 4-{8-amino-5-chloro-3-[(3R)-1-cyanopiperidin-3-yl]imidazo[1,5-a]pyrazin-1-yl}-N-[4-(trifluoromethyl)pyridin-2-yl]benzamide]
0.68 nM | CCOc1cc(C(=O)Nc2cc(C(F)(F)F)ccn2)ccc1-c1nc([C@@H]2CCCN(C#N)C2)n2ccnc(N)c12 [Example 19, 4-{8-amino-3-[(3R)-1-cyanopiperidin-3-yl]imidazo[1,5-a]pyrazin-1-yl}-3-ethoxy-N-[4-(trifluoromethyl)pyridin-2-yl]benzamide]
0.48 nM | C[C@H]1CO[C@@H](c2nc(-c3ccc(C(=O)Nc4cc(C(F)(F)F)ccn4)cc3F)c3c(N)ncc(Cl)n23)CN1C#N [Example 20, 4-{8-amino-5-chloro-3-[(2R,5S)-4-cyano-5-methylmorpholin-2-yl]imidazo[1,5-a]pyrazin-1-yl}-3-fluoro-N-[4-(trifluoromethyl)pyridin-2-yl]benzamide]
0.6 nM | COc1cc(C(=O)Nc2cc(C(F)(F)F)ccn2)ccc1-c1nc([C@H]2CN(C#N)CCO2)n2ccnc(N)c12 [Example 22, 4-{8-amino-3-[(2R)-4-cyanomorpholin-2-yl]imidazo[1,5-a]pyrazin-1-yl}-3-methoxy-N-[4-(trifluoromethyl)pyridin-2-yl]benzamide]
